# Measurements taken from patent US8778337B2, “Use of S-adenosylmethionine (SAM) and superoxide dismutase (SOD) for the preparation of medicaments for the treatment of alzheimer's disease” (Gnosis S.p.A., priority 2008, dated 2014).
# B1: SOD: enzyme superoxide dismutase, obtained by fermentation from strains of Saccharomyces cerevisiae (protein, UniProt P00445 2-154, looked up)
# Superoxide dismutase [Cu-Zn]: VQAVAVLKGDAGVSGVVKFEQASESEPTTVSYEIAGNSPNAERGFHIHEFGDATNGCVSAGPHFNPFKKTHGAPTDEVRHVGDMGNVKTDENGVAKGSFKDSLIKLIGPTSVVGRSVVIHAGQDDLGKGDTEESLKTGNAGPRPACGVIGLTN
# Columns and labels:
# PS1 [1] = experiment: PS1 gene expression in brains of mice on a vitamin B-deprived diet (real-time PCR); format: in vivo; conditions: TgCRND8 mice and wild-type controls, SAM 400 μg/day, brain cDNA normalised to β-actin, FIG. 1, even lower than control diet
# Experimental: (§1) In particular, the effect of SAM was tested at pharmacological concentrations (400 μg/day) on TgCRND8 mice and the corresponding wild-type controls.
# (§2) RNA was extracted from cell cultures and homogenised brains, and cDNA was synthesised. 0.5 μg of total cDNA was used for each real-time reaction on an Opticon2 DNA Engine (MJ Research) using SYBR-Green reagents. The amplification efficiency for each pair of primers was previously determined by amplification of a standard linear curve. The experimental samples were compared with a standard curve of a specific gene to determine the quantity of specific cDNA present in the standard reaction. The standards were obtained from highly purified PCR products amplified by positive controls. The total cDNA levels were normalised to the β-actin control (gene housekeeping).
# BACE [2] = experiment: BACE gene expression in brains of mice on a vitamin B-deprived diet (real-time PCR); format: in vivo; conditions: TgCRND8 mice and wild-type controls, SAM 400 μg/day, brain cDNA normalised to β-actin, FIG. 1, even lower than control diet
# Experimental: as §1, §2
# SK-N-BE cell cultures = experiment: SAM uptake in cell cultures (HPLC and tritiated SAM scintillation count); format: in vitro ADME, human; conditions: 100 μM SAM in F14 medium, 96 hours, HPLC; control 1
# Experimental: For the cell cultures, 100 μM of SAM was added to the F14 cell culture medium (complete or deprived of vitamin B, according to trial design) and the cultures were stopped after 96 hours.
# For the mice, 400 μg/day of SAM was administered orally by feeding probe needle, and the animals were sacrificed after 2 months; the animals were fed on a complete diet or a vitamin B-deprived diet, according to trial design. SAM levels were analysed by HPLC with a Varian HPLC system. The cells and homogenised brains were lysed in distilled water, and the macromolecules were precipitated with 1.5 M PCA. Standard SAM curves were calculated before and after the experimental samples. For the analysis of tritiated SAM, cells were treated as described above, while mice were treated for 4 days to minimise exposure to the radioactive drug. The cells and homogenised brains were lysed in distilled water. […] The uptake of radioactive SAM was measured by scintillation with a beta counter.
# To establish whether the increase was due to uptake of exogenous SAM as opposed to an increase in the endogenous reserves in the presence of elevated extracellular concentrations of the molecule, a test was performed with radioactive SAM. 100 μM of tritiated SAM (SAM[3H]) was added to SK-N-BE cell cultures, and the uptake was evaluated by cell lysis and radioactivity count.
# [3] = SAM uptake in mouse brain after oral administration (HPLC and tritiated SAM scintillation count); format: in vivo; conditions: mice, 800 μg tritiated SAM; total and cleared lysates higher
# Experimental: For the mice, 400 μg/day of SAM was administered orally by feeding probe needle, and the animals were sacrificed after 2 months; the animals were fed on a complete diet or a vitamin B-deprived diet, according to trial design. SAM levels were analysed by HPLC with a Varian HPLC system. The cells and homogenised brains were lysed in distilled water, and the macromolecules were precipitated with 1.5 M PCA. Standard SAM curves were calculated before and after the experimental samples. For the analysis of tritiated SAM, cells were treated as described above, while mice were treated for 4 days to minimise exposure to the radioactive drug. The cells and homogenised brains were lysed in distilled water. A portion of lysed brains was sonicated and centrifuged to separate membranes and cell organelles; another portion was treated with perchloric acid (PCA) after sonication to separate the macromolecules. The uptake of radioactive SAM was measured by scintillation with a beta counter.
# A portion of the total brain lysates was also sonicated and centrifuged to obtain a cleared lysate (cytoplasm), and a further portion of this cleared lysate was precipitated with perchloric acid (PCA) to eliminate the proteins (soluble lysate).
# PS1 [4] = experiment: Preliminary experiments: PS1 expression in SK-N-SH neuroblastoma line in vitamin B-deprived medium; format: cell-based; conditions: medium deprived of folate, vitamin B12 and vitamin B6, SAM at various concentrations, published
# Experimental: (§3) Preliminary experiments have been performed on a neuroblastoma line (SK-N-SH) which expresses APP, PS1, PS2, BACE, alpha-secretase, the other components of gamma-secretase, and Notchl. The cultures were treated with a culture medium deprived of folate, vitamin B12 and vitamin B6 (in order to alter the metabolism of homocysteine), to which SAM was added at various concentrations (to balance the effects of vitamin deprivation). […] In experiments conducted with HpaII/PCR on APP and PS1 promoters, we found a major difference in the methylation of one of the CpG sites of the PS1 promoter. We concluded that the PS1 gene can be partly silenced by administration of exogenous SAM. The administration of SAM can reduce PS1 expression, restoring the metabolic balance in favour of alpha-secretase. Experiments have also been conducted with transgenic mice of the strain TgCRND8, and corresponding controls; these mice are characterised by the presence of the human mutated APP gene, and can therefore develop amyloid plaques in a short time. These animals were fed on a complete diet or a diet lacking in the vitamins of the B group; once again, as in the cells, an increase in PS1 and BACE expression was observed.
# BACE [5] = experiment: Preliminary experiments: BACE expression in SK-N-SH neuroblastoma line in vitamin B-deprived medium; format: cell-based; conditions: medium deprived of folate, vitamin B12 and vitamin B6, SAM at various concentrations, published
# Experimental: as §3
# PS1 [6] = experiment: PS1 gene expression in vitamin-deprived SK-N-BE neuroblastoma cells (real-time PCR); format: cell-based, human; conditions: FIG. 2, SOD and GSH to a lesser extent than SAM
# Experimental: as §2
# (§4) As homocysteine metabolism is involved in both methylation and oxidoreduction reactions, we tested the effect of various antioxidants on the expression of the two genes.
# BACE [7] = experiment: BACE gene expression in vitamin-deprived SK-N-BE neuroblastoma cells (real-time PCR); format: cell-based, human; conditions: FIG. 2, SOD and GSH to a lesser extent than SAM
# Experimental: as §2, §4
Molecule,overexpression of PS1 induced by a deprived diet in vivo (PS1 [1]),overexpression of BACE induced by a deprived diet in vivo (BACE [2]),intracellular levels of SAM (SK-N-BE cell cultures) [µM],"radioactivity level of soluble brain lysate (PCA-precipitated cleared lysate), as SAM [3] [ng]",PS1 expression after the administration of SAM (PS1 [4]),BACE expression after the administration of SAM (BACE [5]),overexpression of PS1 induced by vitamin deprivation (PS1 [6]),overexpression of BACE induced by vitamin deprivation (BACE [7])
"C[S+](CC[C@H](N)C(=O)O)C[C@H]1O[C@@H](n2cnc3c(N)ncnc32)[C@H](O)[C@@H]1O (some centres unmarked) [SAM, S-adenosylmethionine]",reverses the overexpression,reverses the overexpression,2.5 to 3,~0.5,marked reduction,marked reduction,,
B1,,,,,,,inhibit overexpression,inhibit overexpression
